Experimental data: publication PMC5355877, “The development of novel LTA4H modulators to selectively target LTB4 generation” (Scientific Reports, 2017)
“And” between values parts separate entries of the source, which are not always exact repeats. Identical values can stand only once. Like-named read-outs stand apart in the source and are kept apart here. One block for each compound: values may come before it.

Assays:
[1] = target: T1, recombinant human LTA4H (aminopeptidase, PGP substrate) (Homo sapiens, UniProt P09960); experiment: LTA4H aminopeptidase activity: PGP degradation by recombinant human LTA4H; format: biochemical
T1 construct: purchased Cayman Chemicals
T1 sequence (P09960 1-611): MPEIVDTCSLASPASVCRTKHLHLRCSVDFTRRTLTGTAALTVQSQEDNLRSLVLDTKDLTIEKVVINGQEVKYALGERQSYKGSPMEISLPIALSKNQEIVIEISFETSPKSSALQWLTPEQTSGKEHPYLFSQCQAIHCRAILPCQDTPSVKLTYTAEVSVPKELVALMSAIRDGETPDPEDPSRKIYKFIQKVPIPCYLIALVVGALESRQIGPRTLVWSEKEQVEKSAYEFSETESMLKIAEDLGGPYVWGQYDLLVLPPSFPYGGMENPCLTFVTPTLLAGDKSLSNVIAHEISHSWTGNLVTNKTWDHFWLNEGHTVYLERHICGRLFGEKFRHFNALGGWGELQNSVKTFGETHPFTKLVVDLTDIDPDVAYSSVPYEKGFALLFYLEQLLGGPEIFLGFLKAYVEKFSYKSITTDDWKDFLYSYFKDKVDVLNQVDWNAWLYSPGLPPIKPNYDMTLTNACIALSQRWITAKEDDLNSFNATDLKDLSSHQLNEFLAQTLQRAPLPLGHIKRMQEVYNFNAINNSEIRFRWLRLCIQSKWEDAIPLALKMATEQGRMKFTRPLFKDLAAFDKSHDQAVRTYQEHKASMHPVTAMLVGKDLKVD
Method: For peptide quantification in serum, PGP and AcPGP were measured using a MDS Sciex API-4000 spectrometer (Applied Biosystems, Foster City, CA) equipped with a Shimadzu HPLC (Columbia, MD). For peptide quantification from degradation experiments, PGP and AcPGP were measured using a Thermo Accela Pump and Autosampler coupled to a Thermo TSQ Quantum Access. […] Peak area was measured, and PGP/AcPGP peptide concentrations were calculated using a relative standard curve method as previously described.
Mouse serum (diluted 1/10 in PBS) or recombinant human LTA4H (0.1 μg/ml; Cayman Chemicals, Michigan, USA) were incubated with 0.4 mM PGP at 37 °C in 5% CO2 for varying periods of time. Concentrations of PGP remaining were subsequently quantified by ESI-LC/MS/MS (as discussed above) by comparison with PGP standards. The percentage of peptide degraded was determined relative to control samples of 0.4 mM PGP alone. PGP degradation was also assessed by measurement of free proline released and its ensuing reaction with Ninhydrin (as discussed below). Test compounds were assayed in a blinded manner by an investigator during determination of the effect on LTA4H aminopeptidase activity.
To assess free proline liberated, aliquots from PGP degradation experiments were diluted 1 in 10 in PBS (to a final volume of 250 μl). Glacial acetic acid (250 μl) was then added, followed by 250 μl of ninhydrin solution (25 mg/ml in acetic acid/6 M phosphoric acid; heated at 70 °C to dissolve). The reaction mixture was heated at 100 °C for 60 minutes, allowed to cool to room temperature and the proline containing fraction extracted with 500 μl of toluene and optical density measured at 520 nm.

[2] = target: T2, LTA4H epoxide hydrolase activity (LTB4 generation) (Mus musculus, UniProt P24527); experiment: LTA4H epoxide hydrolase activity: LTB4 generation by A23187-treated murine bone marrow neutrophils (EIA); format: cell-based; settings: for IC50: LTB4 generation, murine neutrophils, read-out: Epoxide Hydrolase IC50 ± SEM
T2 construct: endogenous in cells; host or cells: murine bone marrow neutrophils
T2 sequence (P24527 1-611): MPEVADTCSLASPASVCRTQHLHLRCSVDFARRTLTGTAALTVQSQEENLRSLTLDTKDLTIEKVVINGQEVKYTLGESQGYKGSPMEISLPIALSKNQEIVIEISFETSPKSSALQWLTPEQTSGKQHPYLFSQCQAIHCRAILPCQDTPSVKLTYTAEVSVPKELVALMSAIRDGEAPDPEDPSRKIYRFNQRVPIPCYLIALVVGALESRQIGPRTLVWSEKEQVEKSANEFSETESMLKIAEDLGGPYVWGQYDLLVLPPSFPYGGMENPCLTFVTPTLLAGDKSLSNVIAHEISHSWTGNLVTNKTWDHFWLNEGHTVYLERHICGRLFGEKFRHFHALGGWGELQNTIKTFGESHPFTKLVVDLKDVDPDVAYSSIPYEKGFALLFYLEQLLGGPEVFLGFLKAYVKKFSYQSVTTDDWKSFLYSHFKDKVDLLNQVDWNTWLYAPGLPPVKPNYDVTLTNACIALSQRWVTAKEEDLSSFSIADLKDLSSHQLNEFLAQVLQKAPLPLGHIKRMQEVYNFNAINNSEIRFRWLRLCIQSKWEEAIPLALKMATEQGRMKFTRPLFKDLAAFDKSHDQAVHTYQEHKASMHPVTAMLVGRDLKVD
Method: To isolate murine bone marrow neutrophils, the femur and the tibia from both hind legs were removed and freed of soft tissue attachments, and the extreme distal tip of each extremity cut off. HBSS containing 15 mM EDTA and 30 mM HEPES was forced through the bone with a syringe. After dispersing cell clumps and passage through a […] sieve (BD labware, New Jersey), red blood cells were lysed by resuspending pellets in ACK buffer (for 3 minutes at room temperature) before centrifugation (800 × g, 5 min) and washing with HBSS. The cell suspension was centrifuged (800 × g, 5 min, 4 °C) and resuspended in RPMI.
(§1) 1% DMSO was used as a control. Cells were incubated for 20 minutes at 37 °C, and the reaction was terminated by centrifugation (600 × g, 5 min, 4 °C). Supernatants were removed and stored at −80 °C for subsequent LTB4 analysis. The concentration of LTB4 generated in the epoxide hydrolase activity assay was assayed using an EIA, according to manufacturer’s directions (R&D systems, Minneapolis, MN). Test compounds were assayed in a blinded manner by an investigator during determination of effect on LTA4H epoxide hydrolase activity.

LTA4H (PGP degradation) = tested on: LTA4H (PGP degradation); design: method as in PMID 24591641; settings: concentration of 100 μM; 5 μg/ml LTA4H; cited from earlier work
[3] = tested on: LTB4 production by neutrophils; design: method as in PMID 24591641; settings: cited from earlier work
[4] = Mouse liver microsome stability; format: in vitro ADME; settings: liver microsomes
Text: (§2) ARM1 (4-(4-benzylphenyl)-1,3-thiazole-2-amine), compound 11 (7-hydroxy-3-(4-hydroxyphenyl)-4H-chromen-4-one) and compound 13 (7-hydroxy-3-phenyl-4H-chromen-4-one) were all purchased from VitasMLab (Kowloon, Hong Kong). […] All other compounds were custom synthesized by Peakdale Molecular as described in Supplementary Information. ADMET (absorption, distribution, metabolism, and excretion – toxicity) studies were also outsourced to Peakdale Molecular.

[5] = Mouse plasma protein binding; format: in vitro ADME
Text: as §2

logD pH7.4 = format: physicochemical; settings: pH 7.4; read-out: logDpH7.4
Text: as §2

[6] = target: T3, LTA4H epoxide hydrolase activity (LTB4 generation) (Homo sapiens, UniProt P09960); experiment: LTB4 generation by human blood-derived neutrophils; format: cell-based; settings: preliminary data, blood-derived neutrophils from two distinct donors
T3 construct: endogenous in cells; host or cells: human peripheral blood neutrophils from healthy volunteers
T3 sequence (P09960 1-611): T1 sequence (P09960 1-611)
Method: To isolate human neutrophils, peripheral blood was taken from healthy volunteers following informed consent and according to an approved protocol. Neutrophils were subsequently isolated using the MACSxpress™ Neutrophil Isolation Kit (Miltenyi Biotec, UK).
as §1, with “1 × 10^5 murine bone marrow-derived neutrophils or human blood-derived neutrophils (compound 9 only) in 100 μl of RPMI were treated with A23187 at a final concentration of 20 μg/ml. 1%” for “1%”

[7] = Human liver microsome stability; format: in vitro ADME; settings: liver microsomes
Text: as §2

[8] = Human plasma protein binding; format: in vitro ADME
Text: as §2

[9] = design: method as in PMID 12540402; settings: metabolic stability reported; cited from earlier work

SMILES: Nc1nc(-c2ccc(Cc3ccccc3)cc2)cs1 [ARM1, 4-(4-benzylphenyl)-1,3-thiazole-2-amine, reference compound]
IC50 ([1]; PGP degradation, recombinant LTA4H, Table 1, read-out: Aminopeptidase IC50 ± SEM): 9110 nM
IC50 ([1]; read-out: IC50 for inhibiting PGP degradation): ~9100 nM
IC50 ([2]; Table 1): 600 ± 66.2 nM
inhibition of PGP degradation at 100 μM (LTA4H (PGP degradation)): no inhibition
IC50 [3]: 500 nM and ~500 nM

IC50 ([1]; PGP degradation, Table 2, read-out: Aminopeptidase IC50 ± SEM): > 100000 nM
inhibition of PGP degradation at 100 μM ([1]; concentration of 100 μM): no inhibition
microsomal CLint [4]: 466 ± 100 µL/min/mg
half-life ([4]; read-out: Mouse liver microsomes t1/2): 1.5 min
fraction unbound [5]: 0.0213
logD (logD pH7.4): 2.25 ± 0.1
IC50 ([2]; Table 2): 500 ± 40 nM
augmentation of LTB4 inhibitory capacity ([2]; relocation of hydroxyl to R3-position, relative to compound 6): 10 fold
IC50 [6]: 2400 nM
microsomal CLint [7]: 59.5 µL/min/mg
half-life ([7]; read-out: Human liver microsomes t1/2): 11.7 min
fraction unbound [8]: 0.0225
SMILES: COc1cc(O)cc(CCc2ccccc2O)c1 [Compound 9]

SMILES: O=c1c(-c2ccc(O)cc2)coc2cc(O)ccc12 [Compound 11, 7-hydroxy-3-(4-hydroxyphenyl)-4H-chromen-4-one]
IC50 ([1]; PGP degradation, Table 3, read-out: Aminopeptidase IC50 ± SEM): > 100000 nM
IC50 ([2]; Table 3): 15000 ± 2300 nM
t1/2 [9]: 465 ± 21.6 min
